According to patent publication US4684664A, “Derivatives of β-(4-isocyano-1,2,3,4-diepoxycyclopentyl) acrylic acid” (Kureha Kagaku Kogyo Kabushiki Kaisha, priority 1984, dated 1987):
Values after ≈ are worked out from the molar mass of the structure shown.

What was measured:
Format in all cases: cell-based
[1] = tested on: Streptococcus pyogenes IFO 3340; assay: Antibacterial activity, agar-dilution MIC, organism No. 26; settings: Organism No. 26, bouillon-agar
Summary of the method: (§1)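 Dilution in agar (bouillon-agar base) is the format; activity is expressed as MIC, μg per ml medium.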

[2] = tested on: Streptococcus faecium IFO 3826; assay: Antibacterial activity, agar-dilution MIC, organism No. 27; settings: Organism No. 27, bouillon-agar
Summary of the method: as §1

[3] = tested on: Candida albicans IAM 4905; assay: Antifungal activity, agar-dilution MIC, organism No. 29; settings: Organism No. 29, bouillon-agar
Summary of the method: as §1

[4] = tested on: Serratia marcescens IAM 1184; assay: Antibacterial activity, agar-dilution MIC, organism No. 13; settings: Organism No. 13, bouillon-agar
Excerpt: Agar-dilution method was used for determination of the antibacterial activity and antifungal activity while using bouillon-agar culture medium, and the minimum inhibitory concentration of the specimen was expressed by μg/ml of the culture medium.

Proteus vulgaris HX-19 = assay: Antibacterial activity, agar-dilution MIC, organism No. 21; settings: Organism No. 21, bouillon-agar
Summary of the method: as §1

[5] = tested on: Salmonella typhimurium IID 971; assay: Antibacterial activity, agar-dilution MIC, organism No. 8; settings: Organism No. 8, bouillon-agar
Summary of the method: as §1

[6] = tested on: Bacillus subtilis ATCC 6633; assay: Antibacterial activity, agar-dilution MIC, organism No. 14; settings: Organism No. 14, bouillon-agar
Summary of the method: as §1

[7] = tested on: Proteus morganii IFO 3848; assay: Antibacterial activity, agar-dilution MIC, organism No. 18; settings: Organism No. 18, bouillon-agar
Summary of the method: as §1

[8] = tested on: Streptococcus pyogenes Cook; assay: Antibacterial activity, agar-dilution MIC, organism No. 4; settings: Organism No. 4, bouillon-agar
Summary of the method: as §1

[9] = tested on: Proteus mirabilis IFO 3849; assay: Antibacterial activity, agar-dilution MIC, organism No. 19; settings: Organism No. 19, bouillon-agar
Summary of the method: as §1

[10] = tested on: Pseudomonas aeruginosa NCTC 10490; assay: Antibacterial activity, agar-dilution MIC, organism No. 16; settings: Organism No. 16, bouillon-agar
Summary of the method: as §1

[11] = tested on: Staphylococcus aureus Terajima; assay: Antibacterial activity, agar-dilution MIC, organism No. 2; settings: Organism No. 2, bouillon-agar
Summary of the method: as §1

[12] = tested on: Klebsiella pneumoniae PCI-602; assay: Antibacterial activity, agar-dilution MIC, organism No. 7; settings: Organism No. 7, bouillon-agar
Summary of the method: as §1

[13] = tested on: Salmonella enteritidis G 14; assay: Antibacterial activity, agar-dilution MIC, organism No. 12; settings: Organism No. 12, bouillon-agar
Summary of the method: as §1

[14] = tested on: Salmonella shottmuelleri 8006; assay: Antibacterial activity, agar-dilution MIC, organism No. 11; settings: Organism No. 11, bouillon-agar
Summary of the method: as §1

[15] = tested on: Micrococcus luteus ATCC 9341; assay: Antibacterial activity, agar-dilution MIC, organism No. 25; settings: Organism No. 25, bouillon-agar
Summary of the method: as §1

[16] = tested on: Staphylococcus aureus FDA 209PJc-1; assay: Antibacterial activity, agar-dilution MIC, organism No. 1; settings: Organism No. 1, bouillon-agar
Summary of the method: as §1

Salmonella typhi 901 = assay: Antibacterial activity, agar-dilution MIC, organism No. 9
Summary of the method: as §1

[17] = tested on: Pseudomonas aeruginosa IFO 3445; assay: Antibacterial activity, agar-dilution MIC, organism No. 15; settings: Organism No. 15, bouillon-agar
Summary of the method: as §1

[18] = tested on: Enterobacter aerogenes ATCC 13048; assay: Antibacterial activity, agar-dilution MIC, organism No. 23; settings: Organism No. 23, bouillon-agar
Summary of the method: as §1

Proteus vulgaris OX-19 = assay: Antibacterial activity, agar-dilution MIC, organism No. 20; settings: Organism No. 20, bouillon-agar
Summary of the method: as §1

[19] = tested on: Escherichia coli NIHJ-JC-2; assay: Antibacterial activity, agar-dilution MIC, organism No. 5; settings: Organism No. 5, bouillon-agar
Summary of the method: as §1

[20] = tested on: Salmonella paratyphi-A 1015; assay: Antibacterial activity, agar-dilution MIC, organism No. 10
Summary of the method: as §1

[21] = tested on: Escherichia coli K12 C600 IAM 1264; assay: Antibacterial activity, agar-dilution MIC, organism No. 6; settings: Organism No. 6, bouillon-agar
Summary of the method: as §1

[22] = tested on: Pseudomonas aeruginosa PAO 1; assay: Antibacterial activity, agar-dilution MIC, organism No. 17; settings: Organism No. 17, bouillon-agar
Summary of the method: as §1

[23] = tested on: Proteus rettgeri IFO 3850; assay: Antibacterial activity, agar-dilution MIC, organism No. 22; settings: Organism No. 22, bouillon-agar
Summary of the method: as §1

Enterobacter cloacae 963 = assay: Antibacterial activity, agar-dilution MIC, organism No. 24; settings: Organism No. 24, bouillon-agar
Summary of the method: as §1

[24] = tested on: Aspergillus niger IFO 6342; assay: Antifungal activity, agar-dilution MIC, organism No. 30; settings: Organism No. 30, bouillon-agar
Summary of the method: as §1

[25] = tested on: Staphylococcus aureus MS 353; assay: Antibacterial activity, agar-dilution MIC, organism No. 3; settings: Organism No. 3, bouillon-agar
Summary of the method: as §1

Compound: [C-]#[N+]C12CC3(/C=C/C(=O)NC4OC(COC(C)=O)C(OC(C)=O)C(OC(C)=O)C4OC(C)=O)OC3C1O2 (stereo not drawn) [compound 69]
- Minimum Inhibitory Concentration [1]: 50 µg/mL
- Minimum Inhibitory Concentration [2]: > 200 µg/mL
- Minimum Inhibitory Concentration [3]: 100 µg/mL
- Minimum Inhibitory Concentration [4]: > 200 µg/mL
- Minimum Inhibitory Concentration (Proteus vulgaris HX-19): > 200 µg/mL
- Minimum Inhibitory Concentration [5]: > 200 µg/mL
- Minimum Inhibitory Concentration [6]: > 200 µg/mL
- Minimum Inhibitory Concentration [7]: > 200 µg/mL
- Minimum Inhibitory Concentration [8]: > 200 µg/mL
- Minimum Inhibitory Concentration [9]: > 200 µg/mL
- Minimum Inhibitory Concentration [10]: > 200 µg/mL
- Minimum Inhibitory Concentration [11]: > 200 µg/mL
- Minimum Inhibitory Concentration [12]: > 200 µg/mL
- Minimum Inhibitory Concentration [13]: > 200 µg/mL
- Minimum Inhibitory Concentration [14]: > 200 µg/mL
- Minimum Inhibitory Concentration [15]: 100 µg/mL
- Minimum Inhibitory Concentration [16]: 100 µg/mL
- Minimum Inhibitory Concentration (Salmonella typhi 901; Organism No. 9, bouillon-agar): > 200 µg/mL
- Minimum Inhibitory Concentration [17]: > 200 µg/mL
- Minimum Inhibitory Concentration [18]: > 200 µg/mL
- Minimum Inhibitory Concentration (Proteus vulgaris OX-19): > 200 µg/mL
- Minimum Inhibitory Concentration [19]: > 200 µg/mL
- Minimum Inhibitory Concentration ([20]; Organism No. 10, bouillon-agar): 200 µg/mL
- Minimum Inhibitory Concentration [21]: > 200 µg/mL
- Minimum Inhibitory Concentration [22]: > 200 µg/mL
- Minimum Inhibitory Concentration [23]: > 200 µg/mL
- Minimum Inhibitory Concentration (Enterobacter cloacae 963): > 200 µg/mL
- Minimum Inhibitory Concentration [24]: 100 µg/mL
- Minimum Inhibitory Concentration [25]: 100 µg/mL

Compound: [C-]#[N+]C12CC3(/C=C/C(=O)Nc4ccc(OC(C)C)cc4)OC3C1O2 (stereo not drawn) [compound 74]
- MIC ([1]; Streptococcus pyogenes, IFO3340, read-out: Minimum Inhibitory Concentration): 3.13 µg/mL (≈ 9.59 µM)
- MIC ([3]; Candida albicans, IAM4905, read-out: Minimum Inhibitory Concentration): 12.5 µg/mL (≈ 38.3 µM)
- MIC ([4]; Serratia marcescens, IAM1184, read-out: Minimum Inhibitory Concentration): > 200 µg/mL
- MIC (Proteus vulgaris HX-19; Proteus vulgaris, HX19, read-out: Minimum Inhibitory Concentration): 1.56 µg/mL (≈ 4.78 µM)
- MIC ([5]; Salmonella enterica, read-out: Minimum Inhibitory Concentration): > 200 µg/mL
- MIC ([6]; Bacillus subtilis, ATCC6633, read-out: Minimum Inhibitory Concentration): 6.25 µg/mL (≈ 19.2 µM)
- MIC ([7]; Morganella morganii, IFO3848, read-out: Minimum Inhibitory Concentration): 6.25 µg/mL (≈ 19.2 µM)
- MIC ([8]; Streptococcus pyogenes, read-out: Minimum Inhibitory Concentration): 100 µg/mL (≈ 306 µM)
- MIC ([9]; Proteus mirabilis, IFO3849, read-out: Minimum Inhibitory Concentration): > 200 µg/mL
- MIC ([10]; Pseudomonas aeruginosa, NCTC10490, read-out: Minimum Inhibitory Concentration): > 200 µg/mL
- MIC ([11]; Staphylococcus aureus, read-out: Minimum Inhibitory Concentration): 6.25 µg/mL (≈ 19.2 µM)
- MIC ([12]; Klebsiella pneumoniae, PCI602, read-out: Minimum Inhibitory Concentration): 1.56 µg/mL (≈ 4.78 µM)
- MIC ([13]; Salmonella enterica, ENTERITIDIS, read-out: Minimum Inhibitory Concentration): 200 µg/mL (≈ 613 µM)
- MIC ([14]; Salmonella, 8006, read-out: Minimum Inhibitory Concentration): 3.13 µg/mL (≈ 9.59 µM)
- MIC ([15]; Micrococcus luteus, ATCC9341, read-out: Minimum Inhibitory Concentration): 12.5 µg/mL (≈ 38.3 µM)
- MIC ([16]; Staphylococcus aureus, FDA209PJC1, read-out: Minimum Inhibitory Concentration): 0.78 µg/mL (≈ 2.39 µM)
- MIC (Salmonella typhi 901; Salmonella enterica, TYPHI, read-out: Minimum Inhibitory Concentration): 12.5 µg/mL (≈ 38.3 µM)
- MIC ([17]; Pseudomonas aeruginosa, IFO3445, read-out: Minimum Inhibitory Concentration): > 200 µg/mL
- MIC ([18]; Klebsiella aerogenes, ATCC13048, read-out: Minimum Inhibitory Concentration): > 200 µg/mL
- MIC (Proteus vulgaris OX-19; Proteus vulgaris, OX19, read-out: Minimum Inhibitory Concentration): 1.56 µg/mL (≈ 4.78 µM)
- MIC ([19]; Escherichia coli, NIHJJC2, read-out: Minimum Inhibitory Concentration): > 200 µg/mL
- MIC ([20]; Salmonella enterica, PARATYPHI, read-out: Minimum Inhibitory Concentration): 1.56 µg/mL (≈ 4.78 µM)
- MIC ([21]; Escherichia coli, IAM1264, read-out: Minimum Inhibitory Concentration): > 200 µg/mL
- MIC ([22]; Pseudomonas aeruginosa, PAO1, read-out: Minimum Inhibitory Concentration): > 200 µg/mL
- MIC ([23]; Providencia rettgeri, IFO3850, read-out: Minimum Inhibitory Concentration): 100 µg/mL (≈ 306 µM)
- MIC (Enterobacter cloacae 963; Enterobacter cloacae, 963, read-out: Minimum Inhibitory Concentration): > 200 µg/mL
- MIC ([24]; Aspergillus niger, IFO6342, read-out: Minimum Inhibitory Concentration): 12.5 µg/mL (≈ 38.3 µM)
- MIC ([25]; Staphylococcus aureus, MS353, read-out: Minimum Inhibitory Concentration): 1.56 µg/mL (≈ 4.78 µM)
